Experimental data from paper PMC5442318, “Hundreds of dual-stage antimalarial molecules discovered by a functional gametocyte screen” (Nature Communications, 2017).
Where two headings read alike, the source gives them in different places.

Experiments:
[1] = system: P. falciparum stage V female gametocytes; test: P. falciparum female gametocyte activation assay (Pf FGAA), 24 h or 48 h preincubation, Pfs25 expression readout; type: cell-based, Plasmodium falciparum NF54; set-up: key to Biological profile: 49 compounds that were only active with a 48 h exposure (designated as slow-acting); 29 compounds additionally showed activity with only 24 h exposure (designated as fast-acting); when the compounds were added 30 min after triggering gametocyte activation, 12 compounds prevented cell surface expression of Pfs25 (designated as gamete-targeting); conditions: for Pf FGAA classification: SLOW / FAST / GAMETE from activity at 48h, 24h, 0h incubation
Method in brief: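 Female activation, triggered by xanthurenic acid and cooling, was scored by imaging Cy3-labelled anti-Pfs25 female gametes after 24 h at 26 °C. Beforehand, purified NF54 stage V gametocytes had been incubated with compound for either 24 h or 48 h (37 °C, 3% O2). Values are pIC50 from full-curve regression.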

[2] = system: P. falciparum female gametes; test: Pf FGAA with compounds added 30 min after triggering gametocyte activation (gamete-targeting); type: cell-based, Plasmodium falciparum NF54; conditions: 0h incubation time
[3] = system: P. falciparum stages IV–V gametocytes; test: Gametocytocidal ATP-depletion assay (gametocyte ATP bioluminescence); type: cell-based, Plasmodium falciparum; conditions: for inhibition at 2 µM: Plasmodium falciparum, mean
Method in brief: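 Read-out is luciferase luminescence of parasite ATP (BacTiter-Glo), standing in for viability. Double-purified mature stage IV–V gametocytes, 12,500 per well, were exposed 48 h at 37 °C in low-O2 gas; screening concentration 2 μM.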

[4] = system: HepG2 cells; test: HepG2 cytotoxicity assay; type: cell-based; conditions: for Selectivity ratio: HepG2 TOX50 vs Pf FGAA IC50
Method in brief: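 Once incubation ended, the HepG2 plates were warmed to room temperature for 30 min alongside the CellTiter-Glo reagent. Luminescent signal was developed by reagent addition and stabilized for 10 min before plate reading.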

[5] = system: P. falciparum asexual blood stages; conditions: cited from earlier work; for IC50: read-out: Pf Asexual blood stages XC50
[6] = 24h incubation time, read-out: Pf FGAA IC50 (µM) 24h
[7] = P. falciparum female gametocytes, mean, read-out: Gametocytes mean Pf FGAA IC50
[8] = TCAMS asexual blood stage data, ref 1 (Gamo, F. J. et al., Nature 465, 305-310, 2010)
[9] = TCAMS data, ref 1 (Gamo, F. J. et al., Nature 465, 305-310, 2010)
[10] = mean, read-out: Gametocytes mean Pf FGAA IC50
[11] = TCAMS data, ref 1 (Gamo et al., 2010)
[12] = Plasmodium falciparum, 24h incubation time, read-out: Pf FGAA IC50 (µM) 24h
[13] = Plasmodium falciparum, mean, read-out: Gametocytes mean Pf FGAA IC50

Row | SMILES | IC50 [1, 6] [µM] | IC50 [1, 7] [µM] | IC50 [2] [µM] | IC50 [1, 10] [µM] | IC50 [1, 12] [µM] | IC50 [1, 13] [µM] | IC50 ([2]; Plasmodium falciparum) [µM] | IC50 ([1]; stage V gametocytes, 48 h exposure, read-out: PfFGAA IC50) [µM] | Pf FGAA classification [1] | Gametocytes mean ATP inhibition at 2µM [3] [%] | HepG2 cells mean TOX50 ([4]; HepG2 cells) [µM] | IC50 [5, 8] [nM] | Pf Asexual stages XC50 [5, 9] [nM] | Gametocytes mean ATP inhibition at 2µM (%) [3] [%] | HepG2 cells mean TOX50 [4] [µM] | IC50 [5, 11] [nM] | inhibition at 2 µM [3] [%] | Selectivity ratio [4] | HepG2 cells TOX50 ([4]; HepG2 cells) [µM] | Biological profile ([1]; Pf FGAA with 48 h, 24 h or post-activation addition, active = IC50 below 2 μM)
1 | O=C(O)C(F)(F)F.O=c1[nH]ccc2nc(N[C@@H]3CCNC3)nc(Nc3cc(Cl)cc(Cl)c3)c12 [TCMDC-135052] | 2.57 | 0.74 | 15.1 | – | – | – | – | – | SLOW | -43.72 | 4.79 | 740 | 740 | – | – | – | – | – | – | –
2 | CCn1c(-c2nonc2N)nc2c(-c3cccc(NC(=O)Nc4ccc(Cl)cc4)c3)ncc(OCCCN)c21.O=C(O)C(F)(F)F [TCMDC-136152] | 6.65 | – | > 20 | 1.7 | – | – | – | – | SLOW | – | – | – | 830 | -4.09 | 10.96 | 830 | – | – | – | –
3 | CCn1c(-c2nonc2N)nc2c(-c3cccc(NC(=O)Nc4ccc5c(c4)CCC5)c3)ncc(OCCCN)c21.O=C(O)C(F)(F)F [TCMDC-136191] | 6.46 | – | > 20 | 1.03 | – | – | – | – | SLOW | – | – | – | 780 | -19.55 | 7.42 | 780 | – | – | – | –
4 | Cc1cc(C(F)(F)F)cc(-n2ncc(-c3ccc(C(=O)NCc4ccccc4N)cc3)c2N)n1.O=C(O)C(F)(F)F [TCMDC-136658] | 12.5 | – | > 20 | 1.46 | – | – | – | – | SLOW | – | – | – | 450 | -1.42 | 26.82 | 450 | – | – | – | –
5 | CN1CCN(Cc2ccc(OCc3cccc(COc4ccc(CN5CCN(C)CC5)cc4I)c3)c(I)c2)CC1.Cl [TCMDC-137239] | 6.48 | – | 15.1 | 1.85 | – | – | – | – | SLOW | – | – | – | 1010 | -13.43 | 5.01 | 1010 | – | – | – | –
6 | Clc1nc(Cl)c2c(ccn2Cc2ccccc2)n1 [TCMDC-137801] | 2.29 | – | > 20 | 1.46 | – | – | – | – | FAST | – | – | – | 790 | -14.95 | >100 | 790 | – | – | >100 | –
7 | COc1cc2nc(Nc3ccc4c(ccn4Cc4ccccc4)c3)nc(Nc3ccc4c(ccn4Cc4ccccc4)c3)c2cc1OC [TCMDC-138237] | 5.44 | – | > 20 | 1.58 | – | – | – | – | SLOW | – | – | – | 650 | 12.64 | 14.13 | 650 | – | – | – | –
8 | CN(C)CCNCc1cccc(-c2ccc3c(Nc4ccc(Oc5ccccn5)cc4)ccnc3c2)c1 [TCMDC-138493] | 2.58 | – | 2.27 | 0.82 | – | – | – | – | GAMETE | – | – | – | 230 | 38.43 | 3.98 | 230 | – | – | – | –
9 | CC(C)(C)c1ccc(CNCCOc2ccc(Nc3nnc(-c4ccc(-c5ncc[nH]5)cc4)o3)c3ccccc23)cc1.O=C(O)C(F)(F)F [TCMDC-138667] | 3.03 | – | 13.2 | 0.62 | – | – | – | – | SLOW | – | – | – | 140 | -11.45 | 5.96 | 140 | – | – | – | –
10 | COC(=O)c1ccc(-c2ccc(C(=O)NCC3CCN(c4nc(N)c5cc(OC)c(OC)cc5n4)CC3)cc2)cc1 [TCMDC-138721] | 1.88 | – | 13.5 | 0.91 | – | – | – | – | FAST | – | – | – | 190 | 31.66 | 6.10 | 190 | – | – | – | –
11 | O=C(Nc1ccc(-c2ccccc2)c(OCCN2CCNCC2)c1)c1ccc(-c2ccc(Cl)cc2)cc1 [TCMDC-138818] | 1.75 | – | > 20 | 1.38 | – | – | – | – | FAST | – | – | – | 840 | 1.63 | 4.95 | 780 | – | – | – | –

Now from value to compound, other results behind:

Row | IC50 [1, 6] [µM] | IC50 [1, 7] [µM] | IC50 [2] [µM] | IC50 [1, 10] [µM] | IC50 [1, 12] [µM] | IC50 [1, 13] [µM] | IC50 ([2]; Plasmodium falciparum) [µM] | IC50 ([1]; stage V gametocytes, 48 h exposure, read-out: PfFGAA IC50) [µM] | SMILES | Pf FGAA classification [1] | Gametocytes mean ATP inhibition at 2µM [3] [%] | HepG2 cells mean TOX50 ([4]; HepG2 cells) [µM] | IC50 [5, 8] [nM] | Pf Asexual stages XC50 [5, 9] [nM] | Gametocytes mean ATP inhibition at 2µM (%) [3] [%] | HepG2 cells mean TOX50 [4] [µM] | IC50 [5, 11] [nM] | inhibition at 2 µM [3] [%] | Selectivity ratio [4] | HepG2 cells TOX50 ([4]; HepG2 cells) [µM] | Biological profile ([1]; Pf FGAA with 48 h, 24 h or post-activation addition, active = IC50 below 2 μM)
12 | 5.88 | 1.26 | > 20 | – | – | – | – | – | N#Cc1ccc(-c2ccc(C(=O)NCC3CCN(CCN4CCC(c5ccc6c(c5OCC(N)=O)CCCC6)CC4)CC3)cc2)cc1 [TCMDC-134563] | SLOW | -20.83 | 6.17 | 440 | 440 | – | – | – | – | – | – | –
13 | 2.41 | 3.14 | > 20 | – | – | – | – | – | CC(C)(C)OC(=O)NCc1ccc(Nc2nnc(-c3cccc(C(=O)NCc4cc(C(F)(F)F)cc(C(F)(F)F)c4)c3)o2)cc1 [TCMDC-135229] | SLOW | -6.34 | 21.43 | 870 | 870 | – | – | – | – | – | – | –
14 | – | 2.41 | > 20 | – | – | – | – | – | CN1CCN(Cc2ccc(-c3cc4c(Nc5ccc(OCc6cccc(F)c6)c(Cl)c5)ncnc4s3)[nH]2)CC1 [TCMDC-135458] | SLOW | -48.07 | 10.98 | 770 | 770 | – | – | – | – | – | – | –
15 | 5.74 | 1.41 | 12.3 | – | – | – | – | – | CC(C)N1CCN(C(CN2CCN(CCCOc3ccccc3-c3ccccc3)CC2)c2ccc(F)cc2)CC1.Cl (stereo not shown) [TCMDC-135499] | SLOW | -15.92 | 4.32 | 790 | 790 | – | – | – | – | – | – | –
16 | – | – | – | – | 0.51 | 1.84 | > 20 | – | CN(C)CCCNCc1cn(S(=O)(=O)c2ccccc2Cl)c2ccccc12 [TCMDC-136302] | FAST | – | – | – | 350 | – | 11.78 | 1070 | 3.27 | 6.39 | – | –
17 | 3.33 | – | > 20 | 1.54 | – | – | – | – | Cc1noc(C)c1-c1ccc2c(Nc3nccc4ccccc34)c(C(N)=O)cnc2c1 [TCMDC-136456] | SLOW | – | – | – | 890 | 0.55 | 3.85 | 890 | – | – | – | –
18 | 1.91 | – | 8.15 | – | – | – | – | 1.06 | N#Cc1ccc(Cn2ccc3c4c(N)nc(N)nc4ccc32)cc1 [TCMDC-137820] | FAST | – | – | – | 3 | -6.11 | <0.0017 | 3 | – | – | <0.0017 | fast-acting
19 | – | – | – | – | > 20 | 1.14 | > 20 | – | Cc1ccc(S(=O)(=O)N(CCCNCc2cccc(O)c2)c2ccccc2)cc1 [TCMDC-138022] | SLOW | – | – | – | 770 | – | 44.67 | 770 | 32 | 39.21 | – | –
20 | 10 | – | > 20 | 1.91 | – | – | – | – | Cl.Fc1cc(Cl)ccc1Nc1ccnc2cc(-c3ccc(CN4CCNCC4)o3)ccc12 [TCMDC-138394] | SLOW | – | – | – | 280 | 1.31 | 12.05 | 280 | – | – | – | –
21 | 11.2 | – | > 20 | 1.96 | – | – | – | – | CN(/N=C/C=C/c1ccc(Cl)cc1)c1nc(NCCc2ccc(O)cc2)nc(N2CCNCC2)n1 [TCMDC-138546] | SLOW | – | – | – | 870 | -1.95 | 13.18 | 870 | – | – | – | –
22 | – | – | – | – | 0.4 | 0.26 | 2.98 | – | Clc1ccc(Nc2nc(NCc3ccccc3)nc(N/N=C/c3ccccn3)n2)cc1 [TCMDC-138557] | FAST | – | – | – | 780 | – | 13.96 | 780 | 35.7 | 53.35 | – | –
